In article PMC12339982 (Nature Communications, 2025):

Legend:
[1] = target: T1, human wild type TauT (TauT^WT) (Homo sapiens, UniProt P31641); assay: [3H]taurine uptake inhibition assay in HEK293T cells overexpressing TauT^WT; assay type: cell-based; conditions: for inhibition of the uptake activity of TauT: result in words
T1 sequence (P31641 1-620): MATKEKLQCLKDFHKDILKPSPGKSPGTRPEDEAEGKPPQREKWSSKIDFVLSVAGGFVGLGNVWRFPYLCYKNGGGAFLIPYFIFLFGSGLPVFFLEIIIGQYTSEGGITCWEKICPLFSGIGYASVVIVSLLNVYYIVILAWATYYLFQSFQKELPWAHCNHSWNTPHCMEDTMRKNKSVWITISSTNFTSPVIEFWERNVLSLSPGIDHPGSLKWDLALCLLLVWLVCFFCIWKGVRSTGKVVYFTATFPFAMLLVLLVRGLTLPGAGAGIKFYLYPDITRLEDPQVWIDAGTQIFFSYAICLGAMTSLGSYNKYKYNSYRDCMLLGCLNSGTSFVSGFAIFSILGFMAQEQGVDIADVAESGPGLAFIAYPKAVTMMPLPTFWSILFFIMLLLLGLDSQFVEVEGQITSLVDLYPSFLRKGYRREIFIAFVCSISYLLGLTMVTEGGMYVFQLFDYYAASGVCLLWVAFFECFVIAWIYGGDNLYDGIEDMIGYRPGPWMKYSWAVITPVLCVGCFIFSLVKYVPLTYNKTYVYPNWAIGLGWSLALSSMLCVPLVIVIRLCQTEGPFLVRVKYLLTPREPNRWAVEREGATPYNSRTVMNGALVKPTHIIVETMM

[2] = test system: hGAT1; conditions: previous studies; cited from earlier work

Compound	inhibition of the uptake activity of TauT [1]	IC50 [1] [µM]	IC50 for hGAT1 compared with hTauT [2]
NCCCCC(=O)O [5AVA, 5-aminovaleric acid]	concentration-dependently inhibited	–	–
NCCCS(=O)(=O)O [Htau, homotaurine]	concentration-dependently inhibited	770 ± 160	–
O=C(O)Cc1c[nH]cn1 [I4AA, imidazole-4-acetic acid]	concentration-dependently inhibited	–	–
O=S(=O)(O)C1CCNCC1 [P4S, piperidine-4-sulfonic acid]	concentration-dependently inhibited	–	–
O=C(O)C1CCCNC1 (stereo not shown) [nipecotic acid]	concentration-dependently inhibited	–	lower IC50 value for hGAT1 than for hTauT
